# Results as given in PMC10353061 (ACS Pharmacology & Translational Science, 2023).
# How the values were obtained:
# [1] = test system: β-catenin/Tcf-4 interaction; assay: Co-immunoprecipitation of β-catenin and Myc-tagged Tcf-4 in HCT116 cells; format: cell-based, human; settings: HCT116 transfected with Myc-tagged Tcf-4, LiCl 50 mM, 50 μM, 24 h
# Procedure: Toward this end, we performed a co-immunoprecipitation study in HCT116 cells transfected with Myc-tagged Tcf-4, treated with the two compounds, and immunoprecipitated with Myc antisera.
# HCT116 cells were transiently transfected with the Myc-tagged Tcf-4 plasmid and treated with LiCl (50 mM) and 9 (50 μM) or 10 (50 μM) for 24 h. Lysates were immunoprecipitated using Myc-agarose beads and western blot analysis was performed. […] Myc-agarose beads saturated with the Myc-blocking peptide before immunoprecipitation were used as a negative control.
# Co-immunoprecipitation assays were performed as previously described.[16],[60] Briefly, 2 × 10^4/cm^2 HCT116 cells were seeded in a 100 mm dish and incubated overnight at 37 °C. Cells were transfected with pcDNA/Myc Tcf-4 (Addgene plasmid #16512; http://n2t.net/addgene:16512; RRID:Addgene_16512)[29] and, after overnight incubation, were starved for 8 h in a medium containing Opti-MEM (#31985070, Thermo Fisher Scientific), FBS 0.5%, pen/strep 1%, NaPyr 1%, NeAA 1%, and then co-treated with 50 mM LiCl and DMSO or 50 μM compound 9 or 50 μM compound […] for 24 h. Cells were collected at the end of the treatments and lysed in a buffer containing 0.5% Triton X-100, 0.5 mM EDTA, and 1 mM DTT. […] Chemioluminescence was detected using WesternBright ECL (#K-12045-D50, Advansta), according to the manufacturer’s protocol.
# [2] = test system: Wnt/β-catenin signaling pathway; assay: Topflash/Fopflash luciferase report assay in HCT116 cells; format: cell-based, human; settings: 30 μM
# From the text: We synthesized derivatives 5–10 bearing 5-membered and 6-membered heterocyclic rings at the position 3′ or 4′ of the B phenyl ring. […] SW480 cells show higher Wnt activation compared to HCT116 cells.[28] […] In SW480 cells, compounds 5–10 were in the 1.75%(10)–7.32%(7) range of residual luciferase activity, except 6(28.46%), compared to 3(21.61%); in HCT116 cells, compounds 5–10 were in the 0.37%(7)–5.88%(5) range, compared to 3 (18.75%) (Table 1 and Figure 5).
# Figure 5 Residual luciferase activity (%) by compounds 5–10 and reference compound 3 in SW480 cells (left panel) and HCT116 cells (right panel). Data are represented as the mean ± SD of three independent experiments, each performed in triplicate.
# Briefly, the Topflash plasmid (Beyotime, Zhejiang, China) contains 7 TCF/LEF binding sites, while the Fopflash plasmid (Beyotime, Zhejiang, China) contains 6 mutated TCF/LEF binding sites, which are located in the upstream of the luciferase reporter. SW480 and HCT116 cell lines were cultured in 90% DMEM (HyClone, #SH30243.01) plus 10% fetal bovine serum (Gibco, #10270) and plasmocin (mpp-39-03, InvivoGen), respectively. The Topflash/Fopflash vector and plasmid pTK-renilla together were co-transfected to the cells. […] The Dual-Glo luciferase assay kit (Promega, #E1910) was used to measure the luminescence intensity (Figure 2).
# Myc = Myc and β-catenin expression (western blot, qPCR) in LiCl-treated HCT116 cells; format: cell-based, human; settings: HCT116, LiCl 50 mM, 24 h
# Procedure: To this end, HCT116 cells were treated for 24 h with 50 mM LiCl and increasing concentrations (10–50–100 μM) of the two compounds.
# Figure 7 Top panels. […] Vinculin was used as a loading control. […] Bottom panels. c-Myc mRNA levels were measured by qPCR and normalized to the expression of β-actin mRNA and expressed as fold change relative to the control sample. Results represent the mean ± SD of three independent experiments, each performed in triplicate. **p < 0.01, ***p < 0.001 as determined by ANOVA.
# Briefly, total proteins from the cells in each group were subjected to 12% denaturing sodium dodecyl sulfate-polyacrylamide gel electrophoresis (SDS-PAGE). The proteins were then transferred onto a poly(vinylidene fluoride) (PVDF) membrane (Millipore). […] After the membrane was fully washed, it was incubated with secondary antibodies at 37 °C for 45 min goat anti-rabbit IgG H&L (HRP) (ab97051), Abcam, MA. The membrane was washed with Tris-buffered saline/Tween-20 (TBST) 4 times at room temperature for 14 min each time. Next, the samples were exposed and imaged (Sigma-Aldrich Chemical) using the enhanced chemiluminescence (ECL) method (Pierce Biotechnology).
# HCC1937 cells = assay: Cell proliferation by live-cell imaging (IncuCyte), HCC1937 TNBC cells; format: cell-based; settings: 40 μM, 72 h
# Procedure: As TNBC is a highly heterogeneous subgroup, including breast cancers with different molecular and phenotypic traits,[37] effects of compounds 5–10 on cell proliferation were also tested in additional TNBC cell lines, i.e., HCC1806 and HCC1937. As inhibitors of HCC1806 TNBC cells, compounds 5–10 were evaluated in parallel with compounds 3, ICG-001, and iCRT3 (Figures 10 and S12–S19, Supporting Information); as inhibitors of the HCC1937 TNBC cells, 5–10 were compared with 3 and iCRT3 (Figures 10, S20, and S21). Effects on cell proliferation were evaluated as above for the MDA-MB-231 TNBC cells at the latest time point of observation of 72 h.
# Figure 10 Inhibition of MDA-MB-231, HCC1806, and HCC1937 TNBC cell growth by compounds 5–10 and reference compounds 3, […], and iCRT3 at 40 μM. Cell growth inhibition was quantified using the IncuCyte cell-by-cell analysis software, by comparison with the growth of DMSO-treated cells at 72 h, set at 100% (mean ± SD, n = 3, one-way ANOVA, **p ≤ 0.01, ****p ≤ 0.0001).
# Cell proliferation of breast cancer cell lines upon continuous treatment with select compounds was evaluated by the real-time quantitative live-cell imaging system. MDA-MB-231 (1500 cells/well), HCC1806 (2000 cells/well), and HCC1937 (3000 cells/well) were seeded in 96-well plates, treated with increasing doses of selected compounds and images (5 images/well) were acquired every 8 h for 3 days at 10× magnification in an IncuCyte SX5 live-content imaging system (Essen Bioscience) at 37 °C with 5% CO2. Images were analyzed using IncuCyte cell-by-cell analysis software to detect and quantify live cells (phase-contrast). The number of cells at each time point was quantified using IncuCyte cell-by-cell analysis software, and cell growth was evaluated as the normalized ratio between counted cells at each time point normalized to those counted at time 0. Graph drawing and statistical analyses were performed in GraphPad Prism according to the statistical tests described in the figure legends.
compound,measurement,setting,value
"O=S(=O)(Nc1ccc(-c2ccccn2)cc1)c1ccc(Br)cc1 [Compound 9, 4-Bromo-N-(4-(pyridin-2-yl)phenyl)benzenesulfonamide]",association between β-catenin and Tcf-4 (co-immunoprecipitation),[1],completely abrogated the association
same,% Luciferase Activity HCT116 (residual),[2],4.33%
same,inhibition of Myc expression,Myc; 10 μM,about 2.5 fold
same,protein and mRNA levels of Myc,Myc; 10–50–100 μM,significant dose-dependent inhibition
same,β-catenin protein levels,Myc; 10–50–100 μM,reduced only at the highest dose
same,effect on HCC1937 cell growth,HCC1937 cells,less effective
